Data taken from patent publication US12428648B2, “Compositions comprising peptides that block transmission of orthotospoviruses” (priority 2019, dated 2025).
No end group written: not given here.

Target: α5β1 (Homo sapiens, UniProt P05556+P08648)
Assay: not given
Details: Hersel et al., 2003; cited from earlier work

Chain of α5β1 (P08648 42-1049): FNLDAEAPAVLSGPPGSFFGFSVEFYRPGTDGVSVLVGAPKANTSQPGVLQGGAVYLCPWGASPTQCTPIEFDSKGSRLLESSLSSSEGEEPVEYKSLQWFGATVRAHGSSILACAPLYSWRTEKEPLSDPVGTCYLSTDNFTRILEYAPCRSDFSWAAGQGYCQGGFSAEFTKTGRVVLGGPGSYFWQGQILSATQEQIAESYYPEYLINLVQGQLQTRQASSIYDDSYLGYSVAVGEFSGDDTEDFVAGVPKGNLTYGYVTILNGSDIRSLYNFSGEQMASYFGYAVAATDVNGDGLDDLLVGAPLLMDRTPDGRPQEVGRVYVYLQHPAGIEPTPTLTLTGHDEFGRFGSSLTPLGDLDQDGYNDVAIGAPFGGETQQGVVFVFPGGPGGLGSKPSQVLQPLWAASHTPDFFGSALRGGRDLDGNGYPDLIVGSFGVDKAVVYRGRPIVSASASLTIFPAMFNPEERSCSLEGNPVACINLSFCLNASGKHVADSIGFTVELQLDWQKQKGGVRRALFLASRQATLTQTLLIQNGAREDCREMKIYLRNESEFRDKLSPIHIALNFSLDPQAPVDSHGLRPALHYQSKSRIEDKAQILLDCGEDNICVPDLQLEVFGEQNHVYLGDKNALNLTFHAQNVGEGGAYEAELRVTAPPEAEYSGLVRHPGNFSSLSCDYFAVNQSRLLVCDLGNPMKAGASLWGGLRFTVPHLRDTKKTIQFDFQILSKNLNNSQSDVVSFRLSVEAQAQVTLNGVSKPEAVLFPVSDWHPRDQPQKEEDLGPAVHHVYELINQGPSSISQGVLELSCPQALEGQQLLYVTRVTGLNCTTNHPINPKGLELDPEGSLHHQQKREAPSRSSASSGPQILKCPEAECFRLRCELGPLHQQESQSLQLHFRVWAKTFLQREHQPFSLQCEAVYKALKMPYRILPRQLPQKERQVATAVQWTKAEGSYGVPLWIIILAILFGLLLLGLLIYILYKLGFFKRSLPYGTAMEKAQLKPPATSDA
Chain of α5β1 (P05556 21-798): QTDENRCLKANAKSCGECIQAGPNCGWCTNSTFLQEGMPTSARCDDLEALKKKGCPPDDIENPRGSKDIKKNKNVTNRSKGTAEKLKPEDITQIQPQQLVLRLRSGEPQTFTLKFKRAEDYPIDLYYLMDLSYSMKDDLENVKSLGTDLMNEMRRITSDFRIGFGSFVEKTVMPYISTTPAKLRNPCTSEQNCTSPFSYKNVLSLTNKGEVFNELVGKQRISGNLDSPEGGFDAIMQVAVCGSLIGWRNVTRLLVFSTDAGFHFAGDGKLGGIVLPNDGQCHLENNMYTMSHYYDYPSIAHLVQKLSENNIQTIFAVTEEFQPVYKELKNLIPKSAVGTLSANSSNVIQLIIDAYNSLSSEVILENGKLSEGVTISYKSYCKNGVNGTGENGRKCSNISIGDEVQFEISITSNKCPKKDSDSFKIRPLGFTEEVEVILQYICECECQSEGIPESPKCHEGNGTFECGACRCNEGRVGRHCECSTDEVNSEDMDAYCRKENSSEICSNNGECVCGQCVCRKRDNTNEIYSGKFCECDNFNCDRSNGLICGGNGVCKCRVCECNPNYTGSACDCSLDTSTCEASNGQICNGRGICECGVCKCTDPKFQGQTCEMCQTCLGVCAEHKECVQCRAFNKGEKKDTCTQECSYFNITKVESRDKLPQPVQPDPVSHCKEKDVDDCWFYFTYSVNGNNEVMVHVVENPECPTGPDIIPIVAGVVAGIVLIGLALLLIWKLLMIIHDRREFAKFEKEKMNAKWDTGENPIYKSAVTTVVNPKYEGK

Substance	integrin binding preference, in words
RGDSPASSKP	bind preferentially to α5β1
GRGDSP	bind preferentially to α5β1

Target: αvβ3 (Homo sapiens, UniProt P05106+P06756)
Assay: not given
Details: Hersel et al., 2003; cited from earlier work

Chain of αvβ3 (P06756 31-1048): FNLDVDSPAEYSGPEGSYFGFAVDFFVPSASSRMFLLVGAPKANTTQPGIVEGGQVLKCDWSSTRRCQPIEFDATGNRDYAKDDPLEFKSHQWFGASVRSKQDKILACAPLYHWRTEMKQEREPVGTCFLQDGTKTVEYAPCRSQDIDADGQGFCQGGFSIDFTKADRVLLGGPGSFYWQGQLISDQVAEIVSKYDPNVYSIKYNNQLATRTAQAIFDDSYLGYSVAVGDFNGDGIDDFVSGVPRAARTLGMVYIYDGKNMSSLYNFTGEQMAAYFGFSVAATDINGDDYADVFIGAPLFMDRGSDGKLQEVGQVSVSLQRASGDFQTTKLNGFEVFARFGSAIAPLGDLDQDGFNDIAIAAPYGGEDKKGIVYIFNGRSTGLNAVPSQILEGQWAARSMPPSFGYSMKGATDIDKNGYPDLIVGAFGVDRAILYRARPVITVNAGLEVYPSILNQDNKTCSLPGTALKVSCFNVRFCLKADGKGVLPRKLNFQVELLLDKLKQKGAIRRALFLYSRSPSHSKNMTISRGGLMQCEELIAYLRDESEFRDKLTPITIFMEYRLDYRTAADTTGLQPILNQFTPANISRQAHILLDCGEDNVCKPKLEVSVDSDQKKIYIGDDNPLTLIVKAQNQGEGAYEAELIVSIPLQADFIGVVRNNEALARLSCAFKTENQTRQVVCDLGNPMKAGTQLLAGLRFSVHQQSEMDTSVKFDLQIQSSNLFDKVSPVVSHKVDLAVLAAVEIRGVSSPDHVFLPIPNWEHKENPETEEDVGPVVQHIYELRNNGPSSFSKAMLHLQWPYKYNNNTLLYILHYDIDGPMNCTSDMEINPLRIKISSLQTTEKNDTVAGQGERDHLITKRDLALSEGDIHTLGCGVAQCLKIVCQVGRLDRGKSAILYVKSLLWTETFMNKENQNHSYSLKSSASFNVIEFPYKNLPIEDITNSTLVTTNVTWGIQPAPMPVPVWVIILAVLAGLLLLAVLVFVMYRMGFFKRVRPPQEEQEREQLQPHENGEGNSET
Chain of αvβ3 (P05106 27-788): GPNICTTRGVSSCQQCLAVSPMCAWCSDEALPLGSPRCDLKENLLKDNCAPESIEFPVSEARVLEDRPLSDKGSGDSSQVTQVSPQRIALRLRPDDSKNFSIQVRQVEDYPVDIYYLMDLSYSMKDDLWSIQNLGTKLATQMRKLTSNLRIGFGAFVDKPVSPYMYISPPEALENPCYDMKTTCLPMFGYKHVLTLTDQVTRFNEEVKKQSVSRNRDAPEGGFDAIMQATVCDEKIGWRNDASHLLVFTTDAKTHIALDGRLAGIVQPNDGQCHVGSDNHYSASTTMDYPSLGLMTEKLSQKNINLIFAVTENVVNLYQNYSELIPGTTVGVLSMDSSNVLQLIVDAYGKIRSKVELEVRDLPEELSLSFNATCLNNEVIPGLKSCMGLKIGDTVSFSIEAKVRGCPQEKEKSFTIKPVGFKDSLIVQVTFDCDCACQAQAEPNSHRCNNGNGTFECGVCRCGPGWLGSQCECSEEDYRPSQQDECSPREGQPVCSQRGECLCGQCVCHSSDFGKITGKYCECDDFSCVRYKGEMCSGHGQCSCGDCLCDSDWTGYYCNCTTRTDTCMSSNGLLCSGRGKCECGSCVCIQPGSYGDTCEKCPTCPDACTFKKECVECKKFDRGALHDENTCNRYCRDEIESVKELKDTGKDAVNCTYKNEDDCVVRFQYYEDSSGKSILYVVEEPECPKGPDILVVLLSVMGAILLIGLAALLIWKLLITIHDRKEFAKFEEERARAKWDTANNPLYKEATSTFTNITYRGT

Substance	integrin selectivity, in words
GPenGRGDSPCA	selective for αvβ3

Tested on: not listed separately
Assay: Dissolution of the synthesized peptides
Format: physicochemical
Details: molecular biology grade water; 25% acetic acid for A229

Substance	solubility of the peptide, in words
NASIAGDHEVSQE [AGD]	dissolved in molecular biology grade water
NASIAGAHEVSQE [AGA]	dissolved in molecular biology grade water
RLTGECAITKVSLTN [A229]	did not dissolve in either water or 25% acetic acid
NASIRAAHEVSQE [RAA]	dissolved in molecular biology grade water
NASIAADHEVSQE [AAD]	insoluble in H2O
NASIRGDHEVSQE [RGD]	dissolved in molecular biology grade water
NASIAAAHEVSQE [AAA]	dissolved in molecular biology grade water
NASIRADHEVSQE [RAD]	insoluble in H2O
RLTGECNITKVSLTN [N229]	dissolved in molecular biology grade water
NASIRGAHEVSQE [RGA]	dissolved in molecular biology grade water
